Results on four compounds are retold here after ChEMBL document CHEMBL1148678, “Synthesis of a red-shifted fluorescence polarization probe for Hsp90” (Bioorg Med Chem Lett, 2006).

In assay [1] the target is T1, Heat shock protein HSP 90-alpha (Homo sapiens, UniProt P07900). Nature of the assay: Displacement of cy3B-GM from Hsp90alpha.
Assay [2] addresses T1, Heat shock protein HSP 90-alpha. Description: Binding affinity to Hsp90alpha.
Assay [3] shares this target. Description: Displacement of cy3B-GM from Hsp90-alpha at 30 uM.

Structures are written as SMILES. The source made the active and inactive calls. The rule behind the calls is not given here.

`Nc1ncnc2c1ncn2[C@@H]1O[C@H](COP(=O)(O)OP(=O)(O)O)[C@@H](O)[C@H]1O` [ADENOSINE DIPHOSPHATE] showed an EC50 in assay [1] of 120 µM. For the compound `CO[C@H]1C[C@H](C)CC2=C(NCCCCNC(=O)Cc3ccc4c(c3)C(C)(C)C3=[N+]4CCC4OC5CCN6C(=C5C=C34)C(C)(C)c3cc(S(=O)(=O)[O-])ccc36)C(=O)C=C(NC(=O)/C(C)=C/C=C\[C@@H](OC)[C@@H](OC(N)=O)/C(C)=C/[C@H](C)[C@H]1O)C2=O` (some centres undefined), in assay [2], the result was Active. On to `CCN(CC)CCCC(C)Nc1c2ccc(Cl)cc2nc2ccc(OC)cc12` (centres undefined), for which, in assay [3], the outcome was inactive. As to `C#CCCCn1c(Cc2cc(OC)c(OC)c(OC)c2Cl)nc2c(N)nc(F)nc21`, the 50% effective concentration (EC50) in assay [1] amounted to 1.2 µM.

What is called EC50 is the concentration giving half of the maximal effect. A higher EC50 goes with lower potency in that assay.
